Test results: US4621145A, “Process for preparing 5-vinyl-2-pyrrolidinone and intermediates therefor” (Merrell Dow Pharmaceuticals Inc., priority 1982, dated 1986)
One block for each compound: values may come before it.

Key:
GABA-T [1] = details: reported by Lippert et al. and Bouclier et al.; cited from earlier work
[2] = tested on: γ-aminobutyric acid transaminase (GABA-T); details: background, U.S. Pat. No. 3,960,927 and literature; cited from earlier work
[3] = tested on: level of γ-aminobutyric acid (GABA) in the CNS; details: background; cited from earlier work
GABA-T [4] = assay: GABA-T activity in mice brain, test method of Jung et al., J. Neurochemistry; format: in vivo; details: 4 hours after injection
From the text: (§1) The biochemical and pharmacological effects of 4-aminohex-5-ynoic acid are described in Jung et al., Biochem. and Biophys. Res. Comm., 67, 301 (1975); Jung et al., J. Neurochemistry, 28, 717 (1977); Jung et al., Biochemistry, 17, 2628 (1978); Bouclier et al., Eur. J. Biochem., 98, 363 (1979); Biochem. Pharmacology, 28, 1705 (1979); and Lippert et al., Brain Research Bull., 5, 375 (1980). […] For example, (R)-4-aminohex-5-ynoic acid gave the follow effects on GABA-T activity and GABA concentrations in mice brain using the test method of Jung et al., J. Neurochemistry, supra:
(§2) ^(a) 4 hours after injection of the test compound, i.p.

[5] = tested on: GABA concentrations in mice brain; assay: GABA concentrations in mice brain, test method of Jung et al., J. Neurochemistry; format: in vivo; details: 4 hours after injection
From the text: as §1, §2

GABA-T [6] = assay: Chronic oral experiment in rats: GABA-T activity in homogenates of brain minus the cortex; format: in vivo; details: oral daily 100 mg/kg, 24 hours after last dose
Experimental: (§3) In a chronic experiment, a group of five rats was given oral daily doses of 100 mg/kg of (R)-4-aminohex-5-ynoic acid. A separate group of animals was used as control. Twenty-four hours after the last dose, the animals were sacrificed and the cortex was dissected from the rest of the brain.

[7] = tested on: GABA concentration in homogenates of the cortex; assay: Chronic oral experiment in rats: GABA concentration in homogenates of the cortex; format: in vivo; details: oral daily 100 mg/kg, 24 hours after last dose, vs controls
Experimental: as §3

[8] = design: species or system rats; details: rat, in vivo, po, 100 mg/kg
[9] = tested on: convulsions and death, induced by mercaptopropionic acid; assay: Protection of mice against effects induced by mercaptopropionic acid; format: in vivo; details: mercaptopropionic acid 53 mg/kg i.p. 6 hours after
[10] = design: species or system mice; details: mouse, in vivo, ip, 400 mg/kg
GABA-T [11] = assay: Irreversible inhibition of GABA-T in vitro; format: biochemical
GABA-T [12] = assay: Irreversible inhibition of GABA-T in vivo
GABA-T enzyme = assay: Biological activity of 4-amino-5-hexenoic acid enantiomers; details: GABA-T inhibition

Compound: C#C[C@@H](N)CCC(=O)O [(S)-4-aminohex-5-ynoic acid]
irreversible inhibition of GABA-T (reported as only active enantiomer) (GABA-T [1]): irreversibly inhibit GABA-T

Compound: C=CC(N)CCC(=O)O (stereo not drawn) [4-Amino-5-hexenoic acid]
irreversible inhibition of GABA-T [2]: irreversible inhibitor
increase of GABA level in the CNS [3]: capable of increasing the level of γ-aminobutyric acid (GABA) in the CNS

Compound: C#C[C@H](N)CCC(=O)O [(R)-4-aminohex-5-ynoic acid, (R)-4-Aminohex-5-ynoic acid]
% Inhibition of GABA-T (GABA-T [4]; 25 mg/kg i.p.): 31%
% Inhibition of GABA-T (GABA-T [4]; 50 mg/kg i.p.): 50%
% Inhibition of GABA-T (GABA-T [4]; 100 mg/kg i.p.): 66%
% Inhibition of GABA-T (GABA-T [4]; 200 mg/kg i.p.): 81%
GABA Concentration % Control ([5]; 25 mg/kg i.p.): 103 % Control
GABA Concentration % Control ([5]; 50 mg/kg i.p.): 125 % Control
GABA Concentration % Control ([5]; 100 mg/kg i.p.): 180 % Control
GABA Concentration % Control ([5]; 200 mg/kg i.p.): 275 % Control
GABA-T activity decrease as compared to controls (GABA-T [6]): 81%
GABA concentration in homogenates of the cortex [7]: approximately doubled
body weight effect [8]: lost body weight
course of body weight and hair loss effects [8]: appeared to disappear during the second week
hair loss [8]: lost hair on their backs
protection against convulsions and death induced by mercaptopropionic acid ([9]; 100 mg/kg i.p.): protect mice against convulsions and death
protection against running fits ([9]; 100 mg/kg i.p.): no protection against running fits
protection against convulsions and death induced by mercaptopropionic acid ([9]; 200 mg/kg i.p.): protect mice against convulsions and death
protection against running fits ([9]; 200 mg/kg i.p.): no protection against running fits
death [10]: dead
sedation [10]: produced sedation
time to sedation [10]: ≤ 30 min
irreversible inhibition of GABA-T (GABA-T [11]): irreversible inhibitor of GABA-T
irreversible inhibition of GABA-T (GABA-T [12]): irreversible inhibitor of GABA-T

biological activity of the enantiomer (GABA-T enzyme): biologically active
Compound: C=C[C@@H](N)CCC(=O)O [(S)-4-amino-5-hexenoic acid, (S)-4-Amino-5-hexenoic acid]

biological activity of the enantiomer (GABA-T enzyme): biologically inactive
Compound: C=C[C@H](N)CCC(=O)O [(R)-4-amino-5-hexenoic acid]
